# Laboratory results as given in ChEMBL document CHEMBL1157453, “Chrobisiamone A, a new bischromone from Cassia siamea and a biomimetic transformation of 5-acetonyl-7-hydroxy-2-methylchromone into cassiarin A” (Bioorg Med Chem Lett, 2008).
# Tested on: Plasmodium falciparum
# Assay: Antiplasmodial activity against Plasmodium falciparum 3D7
# Type: functional, organism-based
row,IC50,Structure (SMILES)
1,4.5 µg/mL,CC(=O)Cc1cc(O)cc2oc(C)cc(=O)c12
2,7.8 µg/mL,Cc1cc2cc(=O)cc3oc(C)cc(o1)c23 [ANHYDROBARAKOL]
3,2.6 µg/mL,CC(=O)Cc1cc(O)cc2c1C(=O)CC(C)(Cc1cc(=O)c3c(CC(C)=O)cc(O)cc3o1)O2 (stereo not drawn) [CHROBISIAMONE A]
